# Assay results reported in patent US20250312468A1, “ANTI-PROTAC ANTIBODIES AND COMPLEXES” (Merck Patent GmbH, priority 2021, published 2025).
# Assays:
# MIC2 = test: SPR binding of PROTACs to immobilized antibody MIC2; details: MIC2, 1:1 kinetic binding model
# Protocol: The binding affinities of hit antibodies MIC1 and MIC2 to a diverse set of VH032-based PROTACs (FIGS. 8A-8B) was determined by surface plasmon resonance (SPR) in a Biacore T200 instrument. The running buffer consist of PBS, 0.05% Tween-20, 2% DMSO and temperature and flow rate were set to 30° C. and 30 μL/min, respectively. The assay setup is depicted exemplarily in FIG. 7A. CM5 sensor chips were coated with antibody (=ligand; 2500 RU) using standard EDC/NHS chemistry. PROTACs (=analytes) were serially diluted (1 μM-1.9 nM) in running buffer, injected to the instrument in consecutive runs and were captured by the antibody resulting in an increase of the corresponding SPR response. After the association step (300 s), running buffer was injected for 600 s and the PROTAC dissociated from the antibody leading to signal decrease. After each run, residual bound PROTAC was removed from the immobilized antibody by injection of 10 mM glycine/HCl, pH 1.5 for 2×30 s regenerating the antibody for the next association and dissociation cycle. To compensate for matrix effects, the measured SPR response signal was subtracted by the analyte response to an inactivated (EDC/NHS, ethanol amine) reference surface omitting the ligand. Furthermore, a DMSO solvent correction was performed and analyte response was subtracted by the running buffer signal. The corrected response was fitted by a 1:1 kinetic binding model yielding the on- (kon) and off-rate (koff) of the PROTAC, as well as its dissociation constant (KD).
# CD33xMIC8 = test: SPR affinity of VHH clone (antibody fusion) to PROTACs; details: CD33xMIC8 immobilized, 25° C., read-out: KD [M] for antibody binding to PROTAC
# Protocol: (§1) The kinetic and affinity parameters of protein-PROTAC interactions were evaluated by SPR. The anti-PROTAC VHH clones MIC5-MIC14 were immobilized as CD33 or CLL1 antibody fusion (the manufacturing of fusion proteins and the used linker is described in chapter 7.9) onto a CM5 (Series S) sensor chip via the standard amine coupling procedure, at 25° C. Prior to immobilization, the carboxymethylated surface of the chip was activated with 400 mM 1-ethyl-3-(3-dimethylaminopropyl)-carbodiimide and 100 mM N-hydroxysuccinimide for 7 min. Hit anti-PROTAC VHH as CD33 and CLL1 antibody fusions were diluted to 10 μg/ml in 10 mM Acetate at pH 4.5 and immobilized on the activated surface chip for 7 min, in order to reach 3,000 to 6,000 response units (RU). The remaining activated carboxymethylated groups were blocked with a 10 min injection of 1 M ethanolamine pH 8. HBS-N, which consists of 10 mM HEPES pH 7.4 and 150 mM NaCl, was used as the background buffer during immobilization. PROTACs were prediluted in DMSO, diluted 1:50 in running buffer (12 mM phosphate pH 7.4, 137 mM NaCl, 2.7 mM KCl, 0.05% Tween20, 2% DMSO) and injected at ten different concentrations using two-fold dilution series, from 1 μM to 0.002 μM. A DMSO solvent correction (1%-3%) was performed to account for variations in bulk signal and to achieve high-quality data. Interaction analysis cycles consisted of a 300 sec sample injection (30 μL/min; association phase) followed by 900 sec of buffer flow (dissociation phase).
# (§2) All sensorgrams were processed by first subtracting the binding response recorded from the control surface (reference flow-channel), followed by subtracting of the buffer blank injection from the active flow-channel (target protein immobilized). All datasets were fit to a simple 1:1 Langmuir interaction model to determine the kinetic rate constants. Experiments were performed on a Biacore 8k+ (Cytiva, Uppsala, Sweden) at 25° C. and the interactions were evaluated using the provided Biacore Insight Evaluation software.
# CD33xMIC10 = test: as above; details: CD33xMIC10 immobilized, 25° C., read-out: KD [M] for antibody binding to PROTAC
# Protocol: as §1, §2
# CD33xMIC7 = test: as above; details: CD33xMIC7 immobilized, 25° C., read-out: KD [M] for antibody binding to PROTAC
# Protocol: as §1, §2
# CD33xMIC6 = test: as above; details: CD33xMIC6 immobilized, 25° C., read-out: KD [M] for antibody binding to PROTAC
# Protocol: as §1, §2
# CD33xMIC9 = test: as above; details: CD33xMIC9 immobilized, 25° C., read-out: KD [M] for antibody binding to PROTAC
# Protocol: as §1, §2
# CD33xMIC13 = test: as above; details: CD33xMIC13 immobilized, 25° C., read-out: KD [M] for antibody binding to PROTAC
# Protocol: as §1, §2
# CD33xMIC11 = test: as above; details: CD33xMIC11 immobilized, 25° C., read-out: KD [M] for antibody binding to PROTAC
# Protocol: as §1, §2
# CD33xMIC14 = test: as above; details: CD33xMIC14 immobilized, 25° C., read-out: KD [M] for antibody binding to PROTAC
# Protocol: as §1, §2
# CD33xMIC5 = test: as above; details: CD33xMIC5 immobilized, 25° C., read-out: KD [M] for antibody binding to PROTAC
# Protocol: as §1, §2
# CD33xMIC12 = test: as above; details: CD33xMIC12 immobilized, 25° C., read-out: KD [M] for antibody binding to PROTAC
# Protocol: as §1, §2
# [1] = PK study of CD33-based VHH fusions and PAX in C57BL/6N mice; format: in vivo, mouse; details: analyte tAntibody, 30 mg/kg i.v., mean
# Protocol: Additionally, the PAX CD33xMIC5+GNE987 and CD33xMIC7+GNE987 were generated with a theoretical loading of 100% and investigated in PK studies conducted in C57BL/6N inbred mice (N=2 males and females for each group) provided by Charles River Laboratories Italia, Calco, Italy. The 7-8-week-old mice received 30 mg/kg (corresponding to 0.38 mg/kg PROTAC) of CD33xMIC5+GNE987 and CD33xMIC7+GNE987, CD33 antibody alone, CD33xMIC5 or CD33xMIC7 as single dose, that was intravenously injected into the tail vein. Samples have been serially collected from all animals using a microsampling technique ([…] for each blood withdrawal). After administration, two blood samples were taken on the first day and 7 during the three weeks later. Each sample was collected in pre-chilled (0-4° C.) Minivette POCT EDTA tube, transferred in Microvette CB300 EDTA and centrifuged at 2500×g for 10 min at 4° C. The obtained plasma was transferred into a new vial and immediately stored at −80° C. until further analyses. The PK study, animal handling and experimentation, was conducted in accordance with the Italian D.Lvo. 2014/26 and Directive 2010/63/EU. The study was performed at the Instituto di Ricerche Biomediche Antoine Marxer, Colleretto Giacosa, Italy. The institute is fully authorized by the Italian Ministry of Health.
# The total antibody concentration was determined by ligand binding assay (LBA) based on the Meso Scale Diagnostics technology (MSD, LLC., Rockville, MD). All incubation steps were performed at 22° C. with gentle agitation. All washing steps (200 μL/well) were performed with PBS-T, containing PBS pH 7.4 and 0.01% Tween 20, using the plate washer ELx405 (BioTek instruments Inc., Winooski, VT). First, 2.5 μg/mL biotin-SP-conjugated AffiniPure goat anti-human IgG, Fcγ fragment specific (Jackson ImmunoResearch Europe Ltd., JIR, Cambridgeshire, United Kingdom, #109-065-098) was coated on MSD GOLD 96-well Streptavidin QUICKPLEX Plates (MSD, #L55SA) for 2 h. Afterwards, plates were washed three times. Plasma samples, standards and quality controls were serially diluted in dilution buffer, consisting of PBS pH 7.4, 0.05% Tween 20 and 3.0% (w/v) BSA, and incubated on the plates for 1 h. The plates were washed again and incubated for 1 h with 0.6 μg/ml mouse anti-human IgG, F(ab′)2 fragment specific (JIR, #209-005-097), previously labeled with MSD GOLG SULFO-TAG (MSD, #R31AA-1) according to the manufacturing procedure. After a final washing step, 150 μL of 2×MSD Read Buffer T with surfactant (MSD, #R92TC) was added to each well and plates were read on a MESO Quickplex SQ120 plate reader (MSD). The Software Watson LIMS (Version 7.5, ThermoFisher Scientific Inc.) was used to fit the standard curve with a 5PL (Marquart) equations, weighting factor 1/Y2, and to calculate the total mAb concentration of the plasma samples. The lower limit of quantification (LLOQ) was 50 ng/ml. The concentration of MSC2734242 was determined by liquid chromatography tandem mass spectrometry (LC-MS/MS) using a SCIEX 5500 triple quadrupole with Turbo Ion Spray source (ITS) in positive modality (SCIEX, Redwood City, CA, USA). Chromatographic separation was achieved using a Waters ACQUITY UPLC BEH (C18, 2.1×50 mm, 1.7 μm) column, mounted in a Waters ACQUITY I-class UPLC system (Milford, MA, USA), configured with a 100 μL extension loop. […]
compound,measurement,setting,value
CC(=O)N[C@H](C(=O)N1C[C@H](O)C[C@H]1C(=O)NCc1ccc(-c2scnc2C)cc1)C(C)(C)SCCCCCCNC(=O)C[C@@H]1N=C(c2ccc(Cl)cc2)c2c(sc(C)c2C)-n2c(C)nnc21 [AT1],Kd,MIC2,6 nM
same,koff,MIC2,NM/1.90E−03 1/s
same,kon,MIC2,NM/3.10E+05 1/Ms
same,Kd,CD33xMIC8,5.2e-09 M
same,Kd,CD33xMIC10,2.4e-09 M
same,Kd,CD33xMIC7,2.1e-09 M
same,Kd,CD33xMIC6,7.3e-09 M
same,Kd,CD33xMIC9,1.4e-09 M
same,Kd,CD33xMIC13,1.7e-09 M
same,Kd,CD33xMIC11,1.9e-10 M
same,Kd,CD33xMIC14,2.9e-09 M
same,Kd,CD33xMIC5,2.4e-09 M
same,Kd,CD33xMIC12,1.7e-09 M
COc1cc(-c2cn(C)c(=O)c3cnccc23)cc(OC)c1CN1CCN(CCCCCOc2cc(-c3scnc3C)ccc2CNC(=O)[C@@H]2C[C@@H](O)CN2C(=O)[C@@H](NC(=O)C2(F)CC2)C(C)(C)C)CC1 [VZ185],Kd,MIC2,> 1000 nM
Cc1ncsc1-c1ccc(CNC(=O)[C@@H]2C[C@@H](O)CN2C(=O)[C@@H](NC(=O)C2(F)CC2)C(C)(C)C)c(OCCOc2ccc(CN3CCN(c4cc(-c5ccccc5O)nnc4N)CC3)cc2)c1 [ACBI1],Kd,MIC2,> 1000 nM
same,Kd,CD33xMIC10,8.5e-06 M
same,Kd,CD33xMIC6,6.5e-06 M
same,Kd,CD33xMIC13,9.3e-05 M
same,Kd,CD33xMIC11,0.00011 M
same,Kd,CD33xMIC14,9.3e-07 M
same,Kd,CD33xMIC5,2.5e-06 M
"CD33 Ab: parental CD33-binding antibody (gemtuzumab CDRs, IgG4) without VHH",AUC0-inf,[1],219000 µg·h/mL
same,Cl,[1],3.36 mL/day/kg
same,Cmax,[1],810 µg/mL
same,Vss,[1],0.0742 L/kg
same,t½,[1],237.0 h
CC(=O)N1c2ccc(-c3ccc(C(=O)NCCOCCOCCOCC(=O)N[C@H](C(=O)N4C[C@H](O)C[C@H]4C(=O)NCc4ccc(-c5scnc5C)cc4)C(C)(C)C)cc3)cc2[C@H](Nc2ccc(Cl)cc2)C[C@@H]1C [MZP54],Kd,MIC2,0.42 nM
same,koff,MIC2,NM/8.40E−05 1/s
same,kon,MIC2,NM/2.00E+05 1/Ms
CC(=O)N1c2ccc(-c3ccc(C(=O)NCCOCCOCCOCCOCC(=O)N[C@H](C(=O)N4C[C@H](O)C[C@H]4C(=O)NCc4ccc(-c5scnc5C)cc4)C(C)(C)C)cc3)cc2[C@H](Nc2ccc(Cl)cc2)C[C@@H]1C [MZP55],Kd,MIC2,0.63 nM
same,koff,MIC2,NM/7.40E−05 1/s
same,kon,MIC2,NM/1.20E+05 1/Ms
CCCOc1cccc(Oc2cc3c(cc2NS(=O)(=O)c2cccc(C(=O)NCCOCCOCCOCC(=O)N[C@H](C(=O)N4C[C@H](O)C[C@H]4C(=O)NCc4ccc(-c5scnc5C)cc4)C(C)(C)C)c2)n(C)c(=O)n3C)c1 [dTRIM24],Kd,MIC2,0.42 nM
same,koff,MIC2,NM/1.64E−04 1/s
same,kon,MIC2,NM/3.92E+05 1/Ms
Cc1nc(Nc2ncc(C(=O)Nc3c(C)cccc3Cl)s2)cc(N2CCN(C(=O)CCCCCCC(=O)N[C@H](C(=O)N3C[C@H](O)C[C@H]3C(=O)NCc3ccc(-c4scnc4C)cc3)C(C)(C)C)CC2)n1 [SIAIS178],Kd,MIC2,0.41 nM
same,koff,MIC2,NM/4.25E−05 1/s
same,kon,MIC2,NM/1.05E+05 1/Ms
same,Kd,CD33xMIC7,8.3e-09 M
